The results in this text go back to patent US9708312B2, “Dihydropyrimidinoisoquinolinones and pharmaceutical compositions thereof for the treatment of inflammatory disorders (GPR84 antagonists)” (GALAPAGOS NV, priority 2012, dated 2017).

For orientation: IC50 means the concentration at which inhibition is half-maximal. Low values mean greater potency in that assay, high ones weaker potency in that assay.

For the experiment, the target named is T1, GPR84 (Homo sapiens, UniProt Q9NQS5).
T1 construct: expressed in transfected cells
In words: GPR84 [35S]GTPγS binding assay, HEPES buffer. In kind it is biochemical. Particulars: 3,3′ di indolylmethane at EC80, membranes from stable cell line over expressing GPR84. In outline: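 Membranes from a stable GPR84-overexpressing cell line (20 μg/well), pre-incubated with 0.1 μM GDP for 15 min at 4° C, mixed with 0.1 nM [35S]GTPγS and WGA SpA beads in 20 mM HEPES pH 7.4, 5 mM MgCl2, 250 mM NaCl, 0.05% BSA, 75 ug/mL saponin. Incubated 90 min at room temperature; scintillation proximity read after centrifugation.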
A general note: GTPγS is a poorly hydrolysed GTP analogue; its binding reports G protein activation.

T1 sequence (Q9NQS5 whole entry): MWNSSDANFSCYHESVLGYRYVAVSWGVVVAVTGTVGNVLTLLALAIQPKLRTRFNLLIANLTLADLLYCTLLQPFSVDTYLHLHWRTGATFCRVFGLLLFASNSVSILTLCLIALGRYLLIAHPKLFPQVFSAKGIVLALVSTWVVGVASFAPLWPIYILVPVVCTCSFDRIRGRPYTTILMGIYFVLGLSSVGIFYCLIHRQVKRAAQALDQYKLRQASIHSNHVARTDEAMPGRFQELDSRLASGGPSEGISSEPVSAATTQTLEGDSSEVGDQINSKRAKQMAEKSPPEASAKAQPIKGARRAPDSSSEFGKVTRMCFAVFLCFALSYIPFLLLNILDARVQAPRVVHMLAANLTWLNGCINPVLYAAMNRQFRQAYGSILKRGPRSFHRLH

`O=c1nc(OCC2COc3ncccc3O2)cc2n1CCc1cc(-c3ccc(N4CCOCC4)nc3)ccc1-2` (stereo not shown) [compound 165, 2-(2,3-dihydro-[1,4]dioxino[2,3-b]pyridin-2-ylmethoxy)-9-(6-morpholin-4-yl-pyridin-3-yl)-6,7-dihydro-pyrimido[6,1-a]isoquinolin-4-one] displayed an IC50 of 0.01 to 100 nM.

Molecule `CC(C)(N)C#Cc1ccc2c(c1)CCn1c-2cc(OCC2COc3ncccc3O2)nc1=O` (stereo not shown) [compound 178, 9-(3-amino-3-methyl-but-1-ynyl)-2-(2,3-dihydro-[1,4]dioxino[2,3-b]pyridin-2-ylmethoxy)-6,7-dihydro-pyrimido[6,1-a]isoquinolin-4-one] showed an IC50 of 100 to 500 nM.

In turn, `O=c1nc(OCC2CCCO2)cc2n1CCc1cc(OCC3CCCO3)ccc1-2` (stereo not shown) [compound 52, 2,9-bis-(tetrahydro-furan-2-ylmethoxy)-6,7-dihydro-pyrimido[6,1-a]isoquinolin-4-one] yielded an IC50 of 500 to 1000 nM.

Regarding `O=c1nc(OCC2COc3ncccc3O2)cc2n1CCc1cc(-c3ccncc3)ccc1-2` (stereo not shown) [compound 97, 2-(2,3-dihydro-[1,4]dioxino[2,3-b]pyridin-2-ylmethoxy)-9-pyridin-4-yl-6,7-dihydro-pyrimido[6,1-a]isoquinolin-4-one], the IC50 lay within 0.01 to 100 nM.

Regarding `Cn1cc(-c2ccc3c(c2)CCn2c-3cc(OCC3COc4ncccc4O3)nc2=O)cn1` (stereo not shown) [compound 149, 2-(2,3-dihydro-[1,4]dioxino[2,3-b]pyridin-2-ylmethoxy)-9-(1-methyl-1H-pyrazol-4-yl)-6,7-dihydro-pyrimido[6,1-a]isoquinolin-4-one], the IC50 is 0.01 to 100 nM.

With `CCCCOc1ccc2c(c1)CCn1c-2cc(OCC2CCCO2)nc1=O` (stereo not shown) [compound 10, 9-butoxy-2-(tetrahydro-furan-2-ylmethoxy)-6,7-dihydro-pyrimido[6,1-a]isoquinolin-4-one], the IC50 fell in the range of 100 to 500 nM.

Turning to `O=c1nc(OCC2CCCO2)cc2n1CCc1cc(OCc3ccccc3[N+](=O)[O-])ccc1-2` (stereo not shown) [compound 25, 9-(2-nitro-benzyloxy)-2-(tetrahydro-furan-2-ylmethoxy)-6,7-dihydro-pyrimido[6,1-a]isoquinolin-4-one], the IC50 is 0.01 to 100 nM.

On to `CC(C)(C)c1nc(COc2ccc3c(c2)CCn2c-3cc(OCC3CCCO3)nc2=O)no1` (stereo not shown) [compound 87, 9-(5-tert-butyl-[1,2,4]oxadiazol-3-ylmethoxy)-2-(tetrahydro-furan-2-ylmethoxy)-6,7-dihydro-pyrimido[6,1-a]isoquinolin-4-one], for which the IC50 lay in the range of 0.01 to 100 nM.

With `CCC(O)(C#Cc1ccc2c(c1)CCn1c-2cc(OCC2COc3ncccc3O2)nc1=O)CC` (stereo not shown) [compound 186, 2-(2,3-dihydro-[1,4]dioxino[2,3-b]pyridin-2-ylmethoxy)-9-(3-ethyl-3-hydroxy-pent-1-ynyl)-6,7-dihydro-pyrimido[6,1-a]isoquinolin-4-one], the IC50 is 0.01 to 100 nM.

For the molecule `CN(C)CCCOc1ccc2c(c1)CCn1c-2cc(OCC2COc3ccccc3O2)nc1=O` (stereo not shown) [compound 82, 2-(2,3-Dihydro-benzo[1,4]dioxin-2-ylmethoxy)-9-(3-dimethylamino-propoxy)-6,7-dihydro-pyrimido[6,1-a]isoquinolin-4-one], the 50% inhibitory concentration (IC50) is 500 to 1000 nM.

`O=c1nc(OCC2COc3ncccc3O2)cc2n1CCc1cc(OCCN3CCOCC3)ccc1-2` (stereo not shown) [compound 90, 2-(2,3-dihydro-[1,4]dioxino[2,3-b]pyridin-2-ylmethoxy)-9-(2-morpholin-4-yl-ethoxy)-6,7-dihydro-pyrimido[6,1-a]isoquinolin-4-one] showed a 50% inhibitory concentration (IC50) of 100 to 500 nM.

For the molecule `O=c1nc(OCC2CCCO2)cc2n1CCc1cc(OCc3ccc(Cl)cc3)ccc1-2` (stereo not shown) [compound 21, 9-(4-chloro-benzyloxy)-2-(tetrahydro-furan-2-ylmethoxy)-6,7-dihydro-pyrimido[6,1-a]isoquinolin-4-one], the IC50 fell in the range of 0.01 to 100 nM.

`O=C(O)c1cccc(-c2ccc3c(c2)CCn2c-3cc(OCC3CCCO3)nc2=O)c1` (stereo not shown) [compound 103, 3-[4-oxo-2-(tetrahydro-furan-2-ylmethoxy)-6,7-dihydro-4H-pyrimido[6,1-a]isoquinolin-9-yl]-benzoic acid]: the IC50 was 500 to 1000 nM.

Turning to `O=c1nc(OCC2COc3ncccc3O2)cc2n1CCc1cc(C#CC3CC3)ccc1-2` (stereo not shown) [compound 141, 9-cyclopropylethynyl-2-(2,3-dihydro-[1,4]dioxino[2,3-b]pyridin-2-ylmethoxy)-6,7-dihydro-pyrimido[6,1-a]isoquinolin-4-one], the concentration for half-maximal inhibition (IC50) lay within 0.01 to 100 nM.

The molecule `O=c1nc(OCC2COc3ncccc3O2)cc2n1CCc1cc(-c3ccoc3)ccc1-2` (stereo not shown) [compound 148, 2-(2,3-dihydro-[1,4]dioxino[2,3-b]pyridin-2-ylmethoxy)-9-furan-3-yl-6,7-dihydro-pyrimido[6,1-a]isoquinolin-4-one] yielded an IC50 of 0.01 to 100 nM.

Molecule `O=c1nc(OCC2CCCO2)cc2n1CCc1cc(OCc3cccnc3)ccc1-2` (stereo not shown) [compound 8, 9-(pyridin-3-ylmethoxy)-2-(tetrahydro-furan-2-ylmethoxy)-6,7-dihydro-pyrimido[6,1-a]isoquinolin-4-one] came in with an IC50 of 100 to 500 nM.

Regarding `O=c1nc(OCC2COc3ncccc3O2)cc2n1CCc1ccccc1-2` (stereo not shown) [compound 146, 2-(2,3-dihydro-[1,4]dioxino[2,3-b]pyridin-2-ylmethoxy)-6,7-dihydro-pyrimido[6,1-a]isoquinolin-4-one], the IC50 lay within 0.01 to 100 nM.

Consider `CNC(=O)c1ccc(-c2ccc3c(c2)CCn2c-3cc(OCC3COc4ncccc4O3)nc2=O)cn1` (stereo not shown) [compound 147, 5-[2-(2,3-dihydro-[1,4]dioxino[2,3-b]pyridin-2-ylmethoxy)-4-oxo-6,7-dihydro-4H-pyrimido[6,1-a]isoquinolin-9-yl]-pyridine-2-carboxylic acid methylamide], for which the IC50 lay in the range of 0.01 to 100 nM.

In the case of `COc1cccc(OCCOc2ccc3c(c2)CCn2c-3cc(OCC3CCCO3)nc2=O)c1` (stereo not shown) [compound 41, 9-[2-(3-methoxy-phenoxy)-ethoxy]-2-(tetrahydro-furan-2-ylmethoxy)-6,7-dihydro-pyrimido[6,1-a]isoquinolin-4-one], the IC50 lay in the range of 0.01 to 100 nM.

Consider `NC1(C#Cc2ccc3c(c2)CCn2c-3cc(OCC3COc4ncccc4O3)nc2=O)CCCCC1` (stereo not shown) [compound 184, 9-(1-amino-cyclohexylethynyl)-2-(2,3-dihydro-[1,4]dioxino[2,3-b]pyridin-2-ylmethoxy)-6,7-dihydro-pyrimido[6,1-a]isoquinolin-4-one], for which the IC50 is 100 to 500 nM.

Regarding `Cc1nc(COc2ccc3c(c2)CCn2c-3cc(OCC3COc4ncccc4O3)nc2=O)no1` (stereo not shown) [compound 154, 2-(2,3-dihydro-[1,4]dioxino[2,3-b]pyridin-2-ylmethoxy)-9-(5-methyl-[1,2,4]oxadiazol-3-ylmethoxy)-6,7-dihydro-pyrimido[6,1-a]isoquinolin-4-one], the IC50 fell in the range of 0.01 to 100 nM.

Regarding `CN1CCCC1CCOc1ccc2c(c1)CCn1c-2cc(OCC2COc3ccccc3O2)nc1=O` (stereo not shown) [compound 83, 2-(2,3-dihydro-benzo[1,4]dioxin-2-ylmethoxy)-9-[2-(1-methyl-pyrrolidin-2-yl)-ethoxy]-6,7-dihydro-pyrimido[6,1-a]isoquinolin-4-one], the IC50 was in the range of 100 to 500 nM.

`O=c1nc(OCC2COc3ccccc3O2)cc2n1CCc1cc(OCC3CCCO3)ccc1-2` (stereo not shown) [compound 54, 2-(2,3-dihydro-benzo[1,4]dioxin-2-ylmethoxy)-9-(tetrahydro-furan-2-ylmethoxy)-6,7-dihydro-pyrimido[6,1-a]isoquinolin-4-one]: the IC50 fell in the range of 0.01 to 100 nM.

The molecule `O=c1nc(OCC2COc3ccccc3O2)cc2n1CCc1cc(OCc3nnnn3C3CC3)ccc1-2` (stereo not shown) [compound 75, 9-(1-cyclopropyl-1H-tetrazol-5-ylmethoxy)-2-(2,3-dihydro-benzo[1,4]dioxin-2-ylmethoxy)-6,7-dihydro-pyrimido[6,1-a]isoquinolin-4-one] returned an IC50 of 0.01 to 100 nM.

`O=c1nc(OCC2COc3ccccc3O2)cc2n1CCc1cc(OCc3ncco3)ccc1-2` (stereo not shown) [compound 73, 2-(2,3-dihydro-benzo[1,4]dioxin-2-ylmethoxy)-9-(oxazol-2-ylmethoxy)-6,7-dihydro-pyrimido[6,1-a]isoquinolin-4-one] displayed an IC50 of 100 to 500 nM.

`CC(C)(C)OC(=O)COc1ccc2c(c1)CCn1c-2cc(OCC2COc3ccccc3O2)nc1=O` (stereo not shown) [compound 29, [2-(2,3-dihydro-benzo[1,4]dioxin-2-ylmethoxy)-4-oxo-6,7-dihydro-4H-pyrimido[6,1-a]isoquinolin-9-yloxy]-acetic acid tert-butyl ester] yielded an IC50 of 0.01 to 100 nM.

On to `Cc1cc(COc2ccc3c(c2)CCn2c-3cc(OCC3COc4ncccc4O3)nc2=O)on1` (stereo not shown) [compound 159, 2-(2,3-dihydro-[1,4]dioxino[2,3-b]pyridin-2-ylmethoxy)-9-(3-methyl-isoxazol-5-ylmethoxy)-6,7-dihydro-pyrimido[6,1-a]isoquinolin-4-one], for which the 50% inhibitory concentration (IC50) lay within 0.01 to 100 nM.

`O=C(COc1ccc2c(c1)CCn1c-2cc(OCC2COc3ccccc3O2)nc1=O)Nc1ccccc1` (stereo not shown) [compound 68, 2-[2-(2,3-dihydro-benzo[1,4]dioxin-2-ylmethoxy)-4-oxo-6,7-dihydro-4H-pyrimido[6,1-a]isoquinolin-9-yloxy]-N-phenyl-acetamide] returned an IC50 of 0.01 to 100 nM.

As to `COc1ncc(-c2ccc3c(c2)CCn2c-3cc(OCC3COc4ncccc4O3)nc2=O)cn1` (stereo not shown) [compound 166, 2-(2,3-dihydro-[1,4]dioxino[2,3-b]pyridin-2-ylmethoxy)-9-(2-methoxy-pyrimidin-5-yl)-6,7-dihydro-pyrimido[6,1-a]isoquinolin-4-one], the IC50 is 0.01 to 100 nM.

In turn, `O=c1nc(OCC2CCCO2)cc2n1CCc1cc(OCCOCc3ccccc3)ccc1-2` (stereo not shown) [compound 51, 9-(2-benzyloxy-ethoxy)-2-(tetrahydro-furan-2-ylmethoxy)-6,7-dihydro-pyrimido[6,1-a]isoquinolin-4-one] showed an IC50 of 0.01 to 100 nM.

Regarding `CCN(CC)CC#Cc1ccc2c(c1)CCn1c-2cc(OCC2COc3ncccc3O2)nc1=O` (stereo not shown) [compound 177, 9-(3-diethylamino-prop-1-ynyl)-2-(2,3-dihydro-[1,4]dioxino[2,3-b]pyridin-2-ylmethoxy)-6,7-dihydro-pyrimido[6,1-a]isoquinolin-4-one], the IC50 fell in the range of 100 to 500 nM.
